Reference: PubChem BioAssay (NCI)
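In this assay, cells in 96-well plates receive the compound at five concentrations for 48 hours. Endpoints are linearly interpolated between the surrounding concentrations. TGI is the concentration that stops growth completely.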

Tests used:
Assay in all cases: growth of human tumour cells (NCI), 48 h
[1] = system: RXF 393 renal
[2] = system: CCRF-CEM leukemia
[3] = system: OVCAR-3 ovarian
[4] = system: SK-OV-3 ovarian
[5] = system: HS 578T breast
[6] = system: SNB-19 CNS
[7] = system: HT29 colon
[8] = system: SK-MEL-5 melanoma
[9] = system: MDA-N
[10] = system: T-47D breast
[11] = system: KM12 colon
[12] = system: UACC-62 melanoma
[13] = system: HCC-2998 colon
[14] = system: K-562 leukemia
[15] = system: NCI-H522 lung
[16] = system: SN12C renal
[17] = system: TK-10 renal
[18] = system: HOP-92 NSCLC
[19] = system: UACC-257 melanoma
[20] = system: COLO 205 colon
[21] = system: SF-295 CNS
[22] = system: NCI-H23 lung
[23] = system: NCI/ADR-RES ovarian
[24] = system: A498 renal
[25] = system: OVCAR-4 ovarian
[26] = system: MDA-MB-231 breast
[27] = system: BT-549 breast
[28] = system: UO-31 renal
[29] = system: M14 melanoma
[30] = system: U251 CNS
[31] = system: OVCAR-8 ovarian
[32] = system: LOX IMVI melanoma
[33] = system: OVCAR-5 ovarian
[34] = system: PC-3 prostate
[35] = system: SF-539 CNS
[36] = system: EKVX NSCLC
[37] = system: HCT-15 colon
[38] = system: DU-145 prostate
[39] = system: SW-620 colon
[40] = system: ACHN renal
[41] = system: HL-60(TB) leukemia
[42] = system: SK-MEL-2 melanoma
[43] = system: NCI-H460 lung
[44] = system: CAKI-1 renal
[45] = system: SR leukemia
[46] = system: SF-268 CNS
[47] = system: IGROV1 ovarian
[48] = system: RPMI-8226 leukemia
[49] = system: HOP-62 NSCLC
[50] = system: SK-MEL-28 melanoma
[51] = system: HCT-116 colon
[52] = system: MALME-3M melanoma
[53] = system: 786-0 renal
[54] = system: MDA-MB-435
[55] = system: SNB-75 CNS
[56] = system: MCF7 breast
[57] = system: NCI-H226 lung
[58] = system: A549 NSCLC
[59] = system: MOLT-4 leukemia

S=c1[nH]nc(NNc2ccccc2)n1Nc1ccccc1
TGI [1]: > 100 µM | TGI [2]: 42 µM | TGI [3]: > 100 µM | TGI [4]: > 100 µM | TGI [5]: > 100 µM | TGI [6]: > 100 µM | TGI [7]: > 100 µM | TGI [8]: > 100 µM | TGI [9]: > 100 µM | TGI [10]: > 59.6 µM | TGI [11]: > 100 µM | TGI [12]: > 100 µM | TGI [13]: > 100 µM | TGI [14]: > 100 µM | TGI [15]: > 100 µM | TGI [16]: > 100 µM | TGI [17]: > 100 µM | TGI [18]: > 79.9 µM | TGI [19]: > 69.3 µM | TGI [20]: > 37.6 µM | TGI [21]: > 100 µM | TGI [22]: > 100 µM | TGI [23]: > 100 µM | TGI [24]: > 100 µM | TGI [25]: > 100 µM | TGI [26]: > 100 µM | TGI [27]: > 100 µM | TGI [28]: > 100 µM | TGI [29]: > 100 µM | TGI [30]: > 83.9 µM | TGI [31]: > 100 µM | TGI [32]: 32.5 µM | TGI [33]: > 100 µM | TGI [34]: > 100 µM | TGI [35]: > 73.6 µM | TGI [36]: > 100 µM | TGI [37]: > 100 µM | TGI [38]: > 100 µM | TGI [39]: > 100 µM | TGI [40]: > 100 µM | TGI [41]: 57.2 µM | TGI [42]: > 100 µM | TGI [43]: > 54.6 µM | TGI [44]: > 100 µM | TGI [45]: > 91.1 µM | TGI [46]: > 100 µM | TGI [47]: > 100 µM | TGI [48]: > 100 µM | TGI [49]: > 100 µM | TGI [50]: > 100 µM | TGI [51]: > 100 µM | TGI [52]: > 100 µM | TGI [53]: > 100 µM | TGI [54]: > 100 µM | TGI [55]: > 100 µM | TGI [56]: > 100 µM | TGI [57]: > 96.6 µM | TGI [58]: > 100 µM

C/C(=N\Nc1nc2ccccc2s1)c1cc(C)ncn1
TGI [1]: 20 µM | TGI [2]: 4.2 µM | TGI [3]: > 25 µM | TGI [4]: > 35.7 µM | TGI [59]: 4.15 µM | TGI [5]: 12.7 µM | TGI [6]: 61.5 µM | TGI [7]: > 34.6 µM | TGI [8]: 13 µM | TGI [9]: 47.3 µM | TGI [10]: > 100 µM | TGI [11]: 14.2 µM | TGI [12]: > 32.8 µM | TGI [13]: 14.6 µM | TGI [15]: 5.04 µM | TGI [16]: 15.1 µM | TGI [17]: > 100 µM | TGI [18]: > 30.6 µM | TGI [19]: > 27.2 µM | TGI [20]: 4.71 µM | TGI [21]: 30.9 µM | TGI [22]: 15.7 µM | TGI [23]: 4.91 µM | TGI [24]: > 100 µM | TGI [25]: > 39.8 µM | TGI [26]: 9.47 µM | TGI [27]: > 46.3 µM | TGI [28]: 3.84 µM | TGI [29]: 25.7 µM | TGI [30]: > 49.6 µM | TGI [31]: 4.01 µM | TGI [32]: > 100 µM | TGI [33]: > 68.2 µM | TGI [34]: 34.5 µM | TGI [35]: 35 µM | TGI [36]: 17.1 µM | TGI [37]: 13 µM | TGI [38]: 45.1 µM | TGI [39]: > 53.2 µM | TGI [40]: > 32 µM | TGI [41]: > 100 µM | TGI [42]: 23 µM | TGI [43]: 9.16 µM | TGI [44]: 6.63 µM | TGI [45]: 9.82 µM | TGI [46]: 3.16 µM | TGI [47]: 20.5 µM | TGI [48]: > 21 µM | TGI [49]: 18.3 µM | TGI [50]: > 55.8 µM | TGI [51]: > 27.2 µM | TGI [52]: > 36.1 µM | TGI [53]: > 47.3 µM | TGI [54]: > 54.1 µM | TGI [55]: 15.1 µM | TGI [56]: > 19.4 µM | TGI [57]: 4.46 µM | TGI [58]: > 45.2 µM

CN1C(=O)C2C=C3CCCCC3=CC2N(C)C1=O (centres undefined)
TGI [1]: > 100 µM | TGI [2]: > 100 µM | TGI [3]: > 100 µM | TGI [4]: > 100 µM | TGI [59]: > 100 µM | TGI [5]: > 100 µM | TGI [6]: > 100 µM | TGI [7]: > 100 µM | TGI [8]: > 100 µM | TGI [9]: > 100 µM | TGI [10]: > 100 µM | TGI [11]: > 100 µM | TGI [12]: > 100 µM | TGI [13]: > 100 µM | TGI [14]: > 100 µM | TGI [15]: > 100 µM | TGI [16]: > 100 µM | TGI [17]: > 100 µM | TGI [18]: > 100 µM | TGI [19]: > 100 µM | TGI [20]: > 100 µM | TGI [21]: > 100 µM | TGI [22]: > 100 µM | TGI [23]: > 100 µM | TGI [24]: > 100 µM | TGI [25]: > 100 µM | TGI [26]: > 100 µM | TGI [27]: > 100 µM | TGI [28]: > 100 µM | TGI [29]: > 100 µM | TGI [30]: > 100 µM | TGI [31]: > 100 µM | TGI [32]: > 100 µM | TGI [33]: > 100 µM | TGI [34]: > 100 µM | TGI [35]: > 100 µM | TGI [36]: > 100 µM | TGI [37]: > 100 µM | TGI [38]: > 100 µM | TGI [39]: > 100 µM | TGI [40]: > 100 µM | TGI [41]: > 100 µM | TGI [42]: > 100 µM | TGI [43]: > 100 µM | TGI [44]: > 100 µM | TGI [45]: > 100 µM | TGI [46]: > 100 µM | TGI [47]: > 100 µM | TGI [48]: > 100 µM | TGI [49]: > 100 µM | TGI [50]: > 100 µM | TGI [51]: > 100 µM | TGI [52]: > 100 µM | TGI [54]: > 100 µM | TGI [55]: > 100 µM | TGI [56]: > 100 µM | TGI [57]: > 100 µM | TGI [58]: > 100 µM
